In ChEMBL document CHEMBL1275270, “Antioxidant activity of unexplored indole derivatives: synthesis and screening” (Eur J Med Chem, 2010):
Calls of active or inactive are those of the source. No cut-off for these calls is given here.

What was measured:
Format in all cases: functional
[1] = Antioxidant activity assessed as superoxide radical scavenging activity by NBT reduction assay
[2] = Antioxidant activity assessed as inhibition of H2O2-induced oxidation of lucigenin
[3] = Antioxidant activity assessed as trolox equivalent of peroxyl radical scavenging activity by ORAC assay
[4] = Antioxidant activity assessed as inhibition of HOCl-induced oxidation of DHR by rhodamine 123 staining
[5] = Antioxidant activity assessed as inhibition of singlet oxygen-induced oxidation of DHR by rhodamine 123 staining
[6] = Antioxidant activity assessed as inhibition of nitric oxide-induced oxidation of non-fluorescent DAF-2 by fluorescence assay
[7] = Antioxidant activity assessed as inhibition of peroxynitrite anion-induced oxidation of non-fluorescent DHR by rhodamine 123 staining in absence of NaHCO3
[8] = Antioxidant activity assessed as inhibition of peroxynitrite anion-induced oxidation of non-fluorescent DHR by rhodamine 123 staining in presence of NaHCO3

Structure (SMILES)	Activity [1]	inhibition [2]	fold change (FC) [3]	IC50 [4]	IC50 ([5]; read-out: IC50)	IC50 ([6]; read-out: IC50)	IC50 ([7]; read-out: IC50)	IC50 [8]	IC50 [7]	IC50 [6]	IC50 [5]
NCCc1c[nH]c2ccccc12 [TRYPTAMINE]	inactive	inactive	1.86	6 µM	682 µM	672 µM	31.8 µM	10.4 µM	–	–	–
CC(C)CCn1cc(CCN2C(=O)c3ccccc3C2=O)c2ccccc21	inactive	inactive	inactive	10.6 µM	1030 µM	1530 µM	–	237 µM	Not Active	–	–
COC(=O)[C@H](Cc1c[nH]c2ccccc12)NC(C)=O	inactive	inactive	1.21	50 µM	1560 µM	–	223 µM	22.9 µM	–	Not Active	–
COC(=O)C(Cc1c(CC=C(C)C)[nH]c2ccccc12)N1C(=O)c2ccccc2C1=O (stereo not given)	inactive	inactive	0.45	7.18 µM	2310 µM	239 µM	–	28.2 µM	Not Active	–	–
O=C1c2ccccc2C(=O)N1CCc1c[nH]c2ccccc12	inactive	inactive	1.46	11.1 µM	–	–	93 µM	40.9 µM	–	Not Active	Not Active
COC(=O)C(Cc1c[nH]c2ccccc12)N1C(=O)c2ccccc2C1=O (stereo not given)	inactive	inactive	1.09	27.3 µM	943 µM	–	208 µM	29.5 µM	–	Not Active	–
COC(=O)C(Cc1cn(CC=C(C)C)c2ccccc12)N1C(=O)c2ccccc2C1=O (stereo not given)	inactive	inactive	0.36	34.3 µM	2860 µM	–	–	241 µM	Not Active	Not Active	–
COC(=O)C(Cc1c(CCC(C)C)[nH]c2ccccc12)N1C(=O)c2ccccc2C1=O (stereo not given)	inactive	inactive	0.97	3.75 µM	750 µM	–	–	14 µM	Not Active	Not Active	–
COC(=O)[C@H](Cc1cn(C/C=C/c2ccccc2)c2ccccc12)NC(C)=O	inactive	inactive	0.44	67.7 µM	971 µM	–	218 µM	36.3 µM	–	Not Active	–
COC(=O)[C@H](Cc1cn(CCCc2ccccc2)c2ccccc12)NC(C)=O	inactive	inactive	0.44	14.2 µM	506 µM	–	–	142 µM	Not Active	Not Active	–
CC(C)=CCn1cc(CCN)c2ccccc21	inactive	inactive	0.96	26.2 µM	618 µM	1430 µM	905 µM	234 µM	–	–	–
COC(=O)[C@H](Cc1cn(CC=C(C)C)c2ccccc12)NC(C)=O	inactive	inactive	0.21	32.8 µM	777 µM	980 µM	545 µM	162 µM	–	–	–
CC(C)=CCc1[nH]c2ccccc2c1CC(N)C(=O)O (stereo not given)	inactive	inactive	0.48	4.56 µM	–	–	–	–	–	–	–
COC(=O)[C@H](Cc1cn(CCC(C)C)c2ccccc12)NC(C)=O	inactive	inactive	0.28	8.35 µM	718 µM	–	548 µM	315 µM	–	Not Active	–
COC(=O)[C@@H](N)Cc1c[nH]c2ccccc12 [TRYPTOPHAN METHYL ESTER]	inactive	inactive	2.6	9.6 µM	1040 µM	–	47.8 µM	13.1 µM	–	Not Active	–
CC(C)=CCn1cc(CCN2C(=O)c3ccccc3C2=O)c2ccccc21	inactive	inactive	inactive	6.34 µM	–	–	–	192 µM	Not Active	Not Active	Not Active
CC(C)=CCn1cc(CC(N)C(=O)O)c2ccccc21 (stereo not given)	inactive	inactive	1.05	4.13 µM	841 µM	208 µM	94.7 µM	42.4 µM	–	–	–
N[C@@H](Cc1c[nH]c2ccccc12)C(=O)O [TRYPTOPHAN]	inactive	inactive	2.74	3.5 µM	992 µM	1150 µM	31.9 µM	19.2 µM	–	–	–
